What all share (type): cell-based
Experiment [1] addresses human EGFR WT (NIH/3T3 cells, EGF-induced) (Homo sapiens, UniProt P00533). In words: EGFR target modulation in engineered NIH/3T3 cell lines (phospho-EGFR Y1068 AlphaLISA), EGFR WT. The settings on record: engineered NIH/3T3 cells, read-out: NIH3T3 IC50 (μM) EGFR (WT). The gist of the method:
(§1)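 Engineered NIH/3T3 cells expressing EGFR variants treated 3 h at 37 °C with 12-point 1:3 compound series (top stock 10 μM); only WT cells stimulated with 50 ng/ml EGF for 5 min before lysis. Phospho-Y1068 measured by AlphaLISA with total-EGFR antibody; IC50 from non-linear fitting.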
Background: In Alpha technology, singlet oxygen from a donor bead excites a nearby acceptor bead.

Experiment [2] concerns the target human EGFR L858R (NIH/3T3 cells) (Homo sapiens, UniProt P00533, L858R). In words: EGFR target modulation in engineered NIH/3T3 cell lines (phospho-EGFR Y1068 AlphaLISA), EGFR L858R. The settings on record: engineered NIH/3T3 cells, read-out: NIH3T3 IC50 (μM) EGFR (L858R). The method, boiled down:
as §1

A further experiment deals with H1975 (EGFR L858/T790M) (Homo sapiens, UniProt P00533, L858R/T790M). In words: EGFR target modulation in H1975 cell line (phospho-EGFR Y1173 ELISA). The gist of the method: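 Phospho-EGFR Y1173 levels were measured by chemiluminescent capture ELISA in lysates of cells exposed to compound for 3 hours at 37 °C. Inhibition was normalised to EGF-stimulated control cells taken as maximal response, and IC50 values were obtained by non-linear curve fitting.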
Chain of H1975 (EGFR L858/T790M) (P00533 25-1210 T790M/L858R): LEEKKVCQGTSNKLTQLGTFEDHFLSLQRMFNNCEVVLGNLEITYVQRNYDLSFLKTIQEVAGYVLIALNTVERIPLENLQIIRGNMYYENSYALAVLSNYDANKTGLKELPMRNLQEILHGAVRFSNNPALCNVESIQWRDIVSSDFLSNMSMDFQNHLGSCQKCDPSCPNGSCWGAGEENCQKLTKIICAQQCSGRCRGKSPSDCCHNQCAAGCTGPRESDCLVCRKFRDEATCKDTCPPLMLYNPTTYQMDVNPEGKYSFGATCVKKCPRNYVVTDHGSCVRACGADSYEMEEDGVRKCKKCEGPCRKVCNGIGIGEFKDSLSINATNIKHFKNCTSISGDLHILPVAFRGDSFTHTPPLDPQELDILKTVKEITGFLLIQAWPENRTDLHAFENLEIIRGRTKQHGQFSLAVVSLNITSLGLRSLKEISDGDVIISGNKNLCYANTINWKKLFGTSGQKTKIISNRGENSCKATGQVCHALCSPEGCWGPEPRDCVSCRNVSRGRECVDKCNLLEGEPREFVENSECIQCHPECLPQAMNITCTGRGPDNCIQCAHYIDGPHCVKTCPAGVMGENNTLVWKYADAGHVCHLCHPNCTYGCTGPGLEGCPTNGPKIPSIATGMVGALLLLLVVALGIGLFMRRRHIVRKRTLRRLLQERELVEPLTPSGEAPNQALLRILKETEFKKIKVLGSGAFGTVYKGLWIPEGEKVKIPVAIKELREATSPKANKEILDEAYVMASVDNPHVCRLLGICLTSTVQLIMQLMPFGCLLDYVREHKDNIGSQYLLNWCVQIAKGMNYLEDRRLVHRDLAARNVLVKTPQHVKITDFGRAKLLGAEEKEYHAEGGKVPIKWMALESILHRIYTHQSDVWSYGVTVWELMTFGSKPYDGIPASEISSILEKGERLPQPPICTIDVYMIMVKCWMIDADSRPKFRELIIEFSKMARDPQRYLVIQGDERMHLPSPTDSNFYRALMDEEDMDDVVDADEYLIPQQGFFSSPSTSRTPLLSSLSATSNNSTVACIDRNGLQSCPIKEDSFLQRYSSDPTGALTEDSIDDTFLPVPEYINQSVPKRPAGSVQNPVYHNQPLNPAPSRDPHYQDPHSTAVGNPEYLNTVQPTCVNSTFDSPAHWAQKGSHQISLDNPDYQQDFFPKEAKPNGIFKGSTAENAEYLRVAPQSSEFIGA
(In general: ELISA stands for enzyme-linked immunosorbent assay.)

The target of experiment [3] is human EGFR L858R/T790M (NIH/3T3 cells) (Homo sapiens, UniProt P00533, L858R/T790M). In words: EGFR target modulation in engineered NIH/3T3 cell lines (phospho-EGFR Y1068 AlphaLISA), EGFR L858R/T790M. The settings on record: engineered NIH/3T3 cells, read-out: NIH3T3 IC50 (μM) EGFR (L858R/T790M). The method, boiled down: as §1
Chain of human EGFR L858R/T790M (NIH/3T3 cells) (P00533 25-1210 T790M/L858R): as above

Each structure is given as a SMILES string. pIC50: −log10 of the molar value.

Chain of human EGFR L858R (NIH/3T3 cells) (P00533 25-1210 L858R): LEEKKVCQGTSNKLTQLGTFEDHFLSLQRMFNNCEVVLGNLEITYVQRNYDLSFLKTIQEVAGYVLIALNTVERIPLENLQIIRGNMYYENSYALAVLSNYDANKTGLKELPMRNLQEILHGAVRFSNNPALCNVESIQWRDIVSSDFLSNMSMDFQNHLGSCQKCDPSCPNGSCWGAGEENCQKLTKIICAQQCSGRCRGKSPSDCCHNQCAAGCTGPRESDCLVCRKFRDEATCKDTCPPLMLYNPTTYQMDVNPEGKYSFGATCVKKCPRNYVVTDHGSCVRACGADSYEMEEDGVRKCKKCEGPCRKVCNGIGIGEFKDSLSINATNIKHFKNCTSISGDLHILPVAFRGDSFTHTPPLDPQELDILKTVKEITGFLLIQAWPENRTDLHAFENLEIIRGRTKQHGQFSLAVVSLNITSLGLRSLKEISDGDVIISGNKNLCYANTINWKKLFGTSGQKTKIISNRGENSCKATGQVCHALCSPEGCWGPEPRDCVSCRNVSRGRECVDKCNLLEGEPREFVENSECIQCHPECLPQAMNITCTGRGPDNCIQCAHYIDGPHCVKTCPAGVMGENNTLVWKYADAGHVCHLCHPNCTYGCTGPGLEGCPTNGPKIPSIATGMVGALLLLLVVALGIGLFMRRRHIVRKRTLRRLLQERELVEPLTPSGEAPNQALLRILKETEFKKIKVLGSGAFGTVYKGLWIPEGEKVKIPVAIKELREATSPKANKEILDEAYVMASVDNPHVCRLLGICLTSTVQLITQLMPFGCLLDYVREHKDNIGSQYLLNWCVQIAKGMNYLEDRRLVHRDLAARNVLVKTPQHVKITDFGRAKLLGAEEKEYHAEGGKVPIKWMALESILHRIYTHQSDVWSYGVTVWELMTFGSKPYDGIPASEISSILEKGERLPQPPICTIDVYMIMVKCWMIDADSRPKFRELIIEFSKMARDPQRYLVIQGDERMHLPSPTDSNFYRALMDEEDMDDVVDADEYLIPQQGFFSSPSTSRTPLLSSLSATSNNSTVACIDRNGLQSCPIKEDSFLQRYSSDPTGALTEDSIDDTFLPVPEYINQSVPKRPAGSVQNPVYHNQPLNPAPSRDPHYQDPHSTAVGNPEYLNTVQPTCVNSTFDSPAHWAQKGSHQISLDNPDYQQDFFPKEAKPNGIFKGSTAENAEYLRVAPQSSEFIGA
Chain of human EGFR WT (NIH/3T3 cells, EGF-induced) (P00533 25-1210): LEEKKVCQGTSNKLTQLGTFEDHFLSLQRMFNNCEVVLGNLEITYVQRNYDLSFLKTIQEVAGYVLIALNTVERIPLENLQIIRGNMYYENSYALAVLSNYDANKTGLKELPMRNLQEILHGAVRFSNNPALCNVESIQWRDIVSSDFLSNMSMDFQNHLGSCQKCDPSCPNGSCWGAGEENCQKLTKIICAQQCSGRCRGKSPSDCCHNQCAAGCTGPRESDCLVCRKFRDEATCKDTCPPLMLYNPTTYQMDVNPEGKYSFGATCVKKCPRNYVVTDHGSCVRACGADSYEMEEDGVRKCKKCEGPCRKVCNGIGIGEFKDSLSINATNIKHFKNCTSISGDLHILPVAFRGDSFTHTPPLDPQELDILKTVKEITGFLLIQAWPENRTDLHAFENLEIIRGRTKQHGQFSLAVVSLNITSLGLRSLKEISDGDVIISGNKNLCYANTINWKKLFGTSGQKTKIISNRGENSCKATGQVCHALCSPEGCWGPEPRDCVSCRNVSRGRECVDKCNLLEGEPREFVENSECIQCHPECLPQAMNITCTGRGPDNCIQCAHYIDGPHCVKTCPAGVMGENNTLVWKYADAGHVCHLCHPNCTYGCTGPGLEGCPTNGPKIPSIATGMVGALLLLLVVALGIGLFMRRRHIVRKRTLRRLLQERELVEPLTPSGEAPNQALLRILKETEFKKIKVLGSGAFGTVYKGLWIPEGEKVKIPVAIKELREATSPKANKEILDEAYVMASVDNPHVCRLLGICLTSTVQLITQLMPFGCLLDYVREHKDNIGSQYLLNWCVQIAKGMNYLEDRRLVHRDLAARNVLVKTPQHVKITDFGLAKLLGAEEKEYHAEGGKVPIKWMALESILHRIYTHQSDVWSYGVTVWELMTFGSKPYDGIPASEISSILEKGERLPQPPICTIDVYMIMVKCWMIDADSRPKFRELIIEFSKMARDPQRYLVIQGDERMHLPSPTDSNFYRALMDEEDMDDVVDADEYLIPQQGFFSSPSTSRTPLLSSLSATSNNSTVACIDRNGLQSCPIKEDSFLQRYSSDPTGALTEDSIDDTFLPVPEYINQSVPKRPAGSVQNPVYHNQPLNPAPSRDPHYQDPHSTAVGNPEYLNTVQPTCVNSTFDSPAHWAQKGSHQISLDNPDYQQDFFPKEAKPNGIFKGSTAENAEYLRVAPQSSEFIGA

The term pIC50 denotes the IC50 on a negative log10 scale, so that one unit is a factor of ten. A lower pIC50 goes with a high IC50. For the molecule `C=CC(=O)N1CCCC[C@@H](n2c(NC(=O)c3ccnc(C)c3)nc3cc(CN4CC[C@@H](OC)C4)cc(C)c32)C1` [Example 17-150], the IC50 turned out to be 0.042 µM in experiment [1], 0.001 µM in experiment [2] and 0.001 µM in experiment [3]. Also, the pIC50 on H1975 (EGFR L858/T790M) is 8.70.
With `C=CC(=O)N1CCCC[C@@H](n2c(NC(=O)c3ccnc(C)c3)nc3cc(CN4CC[C@H](F)C4)cc(C)c32)C1` [Example 17-147], the results for the IC50 in experiment [1], in experiment [2] and in experiment [3] were 0.025 µM, < 0.001 µM and < 0.001 µM, respectively. Moreover, the pIC50 at H1975 (EGFR L858/T790M) was > 9.00.
Turning to `C=CC(=O)N1CCCC[C@@H](n2c(NC(=O)c3ccnc(C)c3)nc3cc(CN4CC[C@@H](F)C4)cc(C)c32)C1` [Example 17-148], the results for the IC50 in experiment [1], in experiment [2] and in experiment [3] were 0.083 µM, 0.001 µM and 0.002 µM, respectively. On H1975 (EGFR L858/T790M), this molecule gave a pIC50 of 9.00.
Consider `C=CC(=O)N1CCCC[C@@H](n2c(NC(=O)c3ccnc(C)c3)nc3cc(CN4CC[C@H](OC)C4)cc(C)c32)C1` [Example 17-149], for which the IC50 in experiment [1] was 0.015 µM; in experiment [2] it was < 0.001 µM; in experiment [3], < 0.001 µM. Further, at H1975 (EGFR L858/T790M), the pIC50 was > 9.00.
As to `C=CC(=O)N1CCCC[C@@H](n2c(NC(=O)c3ccnc(C)c3)nc3cc(CN4CC(OC)C4)cc(C)c32)C1` [Example 17-154], the results for the IC50 in experiment [1], in experiment [2] and in experiment [3] were 0.01 µM, < 0.001 µM and 0.001 µM, respectively. Moreover, the pIC50 at H1975 (EGFR L858/T790M) was > 9.00.
The matching figures for `C=CC(=O)N1CCCC[C@@H](n2c(NC(=O)c3ccnc(C)c3)nc3cc(CN4CC(F)C4)cc(C)c32)C1` [Example 17-152]: 0.032 µM, < 0.001 µM, 0.001 µM and 9.00.

Source of the values: patent publication US9440957B2, “Compounds and compositions for modulating EGFR Activity” (Novartis AG, priority 2012, dated 2016).
